Assay: recombinant barcode read abundance after kanamycin selection (control-corrected) (log10(CPM+1)); higher = more efficient recombination; sequences stand for … in AGTGCAGAGAAAATCGGCCAGTTTTCTCTGCCTGCAGTCCGCATGCCGT…AGATTTATGCAGCGGACTGCCTTTCTCCCAAAGTGATAAACCGGACAGTATCATGGACCGGTTTTCCCGGTAATCCGTATTTGCAAGGTTGGTTTCACT; site = the 11-nt target
Experimental: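 Pooled E. coli target-specificity screen for the IS621 bridge recombinase. Each library plasmid pairs an 11-nt target (CT core) with a bridge RNA whose target-binding loop (9-nt LTG + 4-nt RTG) is reprogrammed; the rest of the 177-nt WT IS621 bridge RNA scaffold is fixed. The plasmid is co-electroporated with a WT donor plasmid; recombinase is induced with 0.1 mM IPTG and recombinants are selected on kanamycin. Recombinant barcodes are sequenced, converted to CPM, averaged over two biological replicates and corrected by the unselected control CPM. Molecule = full bridge RNA written as DNA: LTG = specificity nt 1-9, RTG = reverse complement of specificity nt 8-11, in the WT scaffold.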
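Note: IS621 recombinase and bridge RNA in Escherichia coli cells.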

Sequence	recombinant barcode read abundance (log10)
AACTGAACTTGGGTTCTAACCTGTTGCCT (site AACTAAACTAG)	0.18
AACTGAACTTGGGTTCTAACCTGTTGCCT (site AACTCAACTAG)	0.056
AACTGAACTTGGGTTCTAACCTGTTGCCT (site AACTGAACTAG)	0.459
AACTGAACTTGGGTTCTAACCTGTTGCCT (site AACTTAACTAG)	0.0689
AACTTCCCTTGGGTTCTAACCTGTTGCCT (site AACTTCACTAG)	0.0364
AACTTCCCTTGGGTTCTAACCTGTTGCCT (site AACTTCCCTAG)	0.315
AACTTCCCTTGGGTTCTAACCTGTTGCCT (site AACTTCGCTAG)	0.00996
AACTTCCCTTGGGTTCTAACCTGTTGCCT (site AACTTCTCTAG)	0.0342
AACTTCTCTTGGGTTCTAACCTGTTGCCT (site AACTTCACTAG)	0.184
AACTTCTCTTGGGTTCTAACCTGTTGCCT (site AACTTCCCTAG)	0.242
AACTTCTCTTGGGTTCTAACCTGTTGCCT (site AACTTCGCTAG)	0.0209
AACTTCTCTTGGGTTCTAACCTGTTGCCT (site AACTTCTCTAG)	0.917
AAGAACACTTGGGTTCTAACCTGTTGCCT (site AAGAACACTAG)	2.06
AAGAACACTTGGGTTCTAACCTGTTGCCT (site CAGAACACTAG)	0.46
AAGAACACTTGGGTTCTAACCTGTTGCCT (site GAGAACACTAG)	0.233
AAGAACACTTGGGTTCTAACCTGTTGCCT (site TAGAACACTAG)	1.19

Sequence	recombinant barcode read abundance (log10)
AAGAACTCTTGGGTTCTAACCTGTTGCCA (site AAGAACTCTTG)	1.11
AAGAACTCTTGGGTTCTAACCTGTTGCCA (site GGCGTGCCTAC)	0.199
AAGACAGCTTGGGTTCTAACCTGTTGCCT (site AAGAAAGCTAG)	0.403
AAGACAGCTTGGGTTCTAACCTGTTGCCT (site AAGACAGCTAG)	1.19
AAGACAGCTTGGGTTCTAACCTGTTGCCT (site AAGAGAGCTAG)	0.0524
AAGACAGCTTGGGTTCTAACCTGTTGCCT (site AAGATAGCTAG)	0.0189
AAGACCTCTTGGGTTCTAACCTGTTGCTT (site AAGACCTCTAA)	1.76
AAGACCTCTTGGGTTCTAACCTGTTGCTT (site AAGCCCTCTAA)	0.139
AAGACCTCTTGGGTTCTAACCTGTTGCTT (site AAGGCCTCTAA)	0.255
AAGACCTCTTGGGTTCTAACCTGTTGCTT (site AAGTCCTCTAA)	0.134
AAGACTCCTTGGGTTCTAACCTGTTGCTT (site AACACTCCTAA)	0.287
AAGACTCCTTGGGTTCTAACCTGTTGCTT (site AAGACTCCTAA)	1.05
AAGAGAGCTTGGGTTCTAACCTGTTGCCT (site AAGAAAGCTAG)	0.0985
AAGAGAGCTTGGGTTCTAACCTGTTGCCT (site AAGACAGCTAG)	0.154
AAGAGAGCTTGGGTTCTAACCTGTTGCCT (site AAGAGAGCTAG)	1.91
AAGAGAGCTTGGGTTCTAACCTGTTGCCT (site AAGATAGCTAG)	0.0307

From the supplement of paper PMC11208160
